Reference: patent US20250263753A1, “BRIDGED CYCLE-BASED INHIBITORS OF DNA-DEPENDENT PROTEIN KINASE AND COMPOSITIONS AND APPLICATION IN GENE EDITING” (Juno Therapeutics, Inc., priority 2023, published 2025)
pIC50: −log10 of the molar value. Where two headings read alike, the source gives them in different places.

Assays:
[1] = target: PI3Kδ (His-PIK3CD/PIK3R1, p110 delta/p85 alpha) (Homo sapiens (Human), UniProt O00329); test: PI3Kδ biochemical assay (HTRF/FRET probe); type: binding
Protocol: Phosphoinositide 3-kinase (PI3K) Biochemical Assay: A solution was prepared containing 0.2 nM Anti-HIS-Terbium (Cisbio, 64CUSTAZU), 40 nM designed-probe and 1.0 nM His-PIK3CD/PIK3R1 (p110 delta/p85 alpha) in FRET Buffer (20 mM HEPES, 10 mM MgCl2, 0.015% Brij-35, 4 mM DTT, 0.05 mg/mL BSA).

[2] = target: PI3Kα (His-PIK3CA/PIK3R1, p110 alpha/p85 alpha) (Homo sapiens (Human), UniProt P42336); test: PI3Kα biochemical assay (HTRF/FRET probe); type: binding
Protocol: Phosphoinositide 3-kinase α (PI3Kα) Biochemical Assay: A solution was prepared containing 0.2 nM Anti-HIS-Terbium (Cisbio, 64CUSTAZU), 3.7 nM designed-probe and 1.0 nM His-PIK3CA/PIK3R1 (p110 alpha/p85 alpha) in FRET Buffer (20 mM HEPES, 10 mM MgCl2, 0.015% Brij-35, 4 mM DTT, 0.05 mg/mL BSA).

ATM = ATM (Homo sapiens (Human), UniProt Q13315); test: ATM biochemical assay (Reaction Biology HTRF kinase assay, 10 μM ATP)
Sequence of ATM (Q13315 whole entry, the tested form may be a part): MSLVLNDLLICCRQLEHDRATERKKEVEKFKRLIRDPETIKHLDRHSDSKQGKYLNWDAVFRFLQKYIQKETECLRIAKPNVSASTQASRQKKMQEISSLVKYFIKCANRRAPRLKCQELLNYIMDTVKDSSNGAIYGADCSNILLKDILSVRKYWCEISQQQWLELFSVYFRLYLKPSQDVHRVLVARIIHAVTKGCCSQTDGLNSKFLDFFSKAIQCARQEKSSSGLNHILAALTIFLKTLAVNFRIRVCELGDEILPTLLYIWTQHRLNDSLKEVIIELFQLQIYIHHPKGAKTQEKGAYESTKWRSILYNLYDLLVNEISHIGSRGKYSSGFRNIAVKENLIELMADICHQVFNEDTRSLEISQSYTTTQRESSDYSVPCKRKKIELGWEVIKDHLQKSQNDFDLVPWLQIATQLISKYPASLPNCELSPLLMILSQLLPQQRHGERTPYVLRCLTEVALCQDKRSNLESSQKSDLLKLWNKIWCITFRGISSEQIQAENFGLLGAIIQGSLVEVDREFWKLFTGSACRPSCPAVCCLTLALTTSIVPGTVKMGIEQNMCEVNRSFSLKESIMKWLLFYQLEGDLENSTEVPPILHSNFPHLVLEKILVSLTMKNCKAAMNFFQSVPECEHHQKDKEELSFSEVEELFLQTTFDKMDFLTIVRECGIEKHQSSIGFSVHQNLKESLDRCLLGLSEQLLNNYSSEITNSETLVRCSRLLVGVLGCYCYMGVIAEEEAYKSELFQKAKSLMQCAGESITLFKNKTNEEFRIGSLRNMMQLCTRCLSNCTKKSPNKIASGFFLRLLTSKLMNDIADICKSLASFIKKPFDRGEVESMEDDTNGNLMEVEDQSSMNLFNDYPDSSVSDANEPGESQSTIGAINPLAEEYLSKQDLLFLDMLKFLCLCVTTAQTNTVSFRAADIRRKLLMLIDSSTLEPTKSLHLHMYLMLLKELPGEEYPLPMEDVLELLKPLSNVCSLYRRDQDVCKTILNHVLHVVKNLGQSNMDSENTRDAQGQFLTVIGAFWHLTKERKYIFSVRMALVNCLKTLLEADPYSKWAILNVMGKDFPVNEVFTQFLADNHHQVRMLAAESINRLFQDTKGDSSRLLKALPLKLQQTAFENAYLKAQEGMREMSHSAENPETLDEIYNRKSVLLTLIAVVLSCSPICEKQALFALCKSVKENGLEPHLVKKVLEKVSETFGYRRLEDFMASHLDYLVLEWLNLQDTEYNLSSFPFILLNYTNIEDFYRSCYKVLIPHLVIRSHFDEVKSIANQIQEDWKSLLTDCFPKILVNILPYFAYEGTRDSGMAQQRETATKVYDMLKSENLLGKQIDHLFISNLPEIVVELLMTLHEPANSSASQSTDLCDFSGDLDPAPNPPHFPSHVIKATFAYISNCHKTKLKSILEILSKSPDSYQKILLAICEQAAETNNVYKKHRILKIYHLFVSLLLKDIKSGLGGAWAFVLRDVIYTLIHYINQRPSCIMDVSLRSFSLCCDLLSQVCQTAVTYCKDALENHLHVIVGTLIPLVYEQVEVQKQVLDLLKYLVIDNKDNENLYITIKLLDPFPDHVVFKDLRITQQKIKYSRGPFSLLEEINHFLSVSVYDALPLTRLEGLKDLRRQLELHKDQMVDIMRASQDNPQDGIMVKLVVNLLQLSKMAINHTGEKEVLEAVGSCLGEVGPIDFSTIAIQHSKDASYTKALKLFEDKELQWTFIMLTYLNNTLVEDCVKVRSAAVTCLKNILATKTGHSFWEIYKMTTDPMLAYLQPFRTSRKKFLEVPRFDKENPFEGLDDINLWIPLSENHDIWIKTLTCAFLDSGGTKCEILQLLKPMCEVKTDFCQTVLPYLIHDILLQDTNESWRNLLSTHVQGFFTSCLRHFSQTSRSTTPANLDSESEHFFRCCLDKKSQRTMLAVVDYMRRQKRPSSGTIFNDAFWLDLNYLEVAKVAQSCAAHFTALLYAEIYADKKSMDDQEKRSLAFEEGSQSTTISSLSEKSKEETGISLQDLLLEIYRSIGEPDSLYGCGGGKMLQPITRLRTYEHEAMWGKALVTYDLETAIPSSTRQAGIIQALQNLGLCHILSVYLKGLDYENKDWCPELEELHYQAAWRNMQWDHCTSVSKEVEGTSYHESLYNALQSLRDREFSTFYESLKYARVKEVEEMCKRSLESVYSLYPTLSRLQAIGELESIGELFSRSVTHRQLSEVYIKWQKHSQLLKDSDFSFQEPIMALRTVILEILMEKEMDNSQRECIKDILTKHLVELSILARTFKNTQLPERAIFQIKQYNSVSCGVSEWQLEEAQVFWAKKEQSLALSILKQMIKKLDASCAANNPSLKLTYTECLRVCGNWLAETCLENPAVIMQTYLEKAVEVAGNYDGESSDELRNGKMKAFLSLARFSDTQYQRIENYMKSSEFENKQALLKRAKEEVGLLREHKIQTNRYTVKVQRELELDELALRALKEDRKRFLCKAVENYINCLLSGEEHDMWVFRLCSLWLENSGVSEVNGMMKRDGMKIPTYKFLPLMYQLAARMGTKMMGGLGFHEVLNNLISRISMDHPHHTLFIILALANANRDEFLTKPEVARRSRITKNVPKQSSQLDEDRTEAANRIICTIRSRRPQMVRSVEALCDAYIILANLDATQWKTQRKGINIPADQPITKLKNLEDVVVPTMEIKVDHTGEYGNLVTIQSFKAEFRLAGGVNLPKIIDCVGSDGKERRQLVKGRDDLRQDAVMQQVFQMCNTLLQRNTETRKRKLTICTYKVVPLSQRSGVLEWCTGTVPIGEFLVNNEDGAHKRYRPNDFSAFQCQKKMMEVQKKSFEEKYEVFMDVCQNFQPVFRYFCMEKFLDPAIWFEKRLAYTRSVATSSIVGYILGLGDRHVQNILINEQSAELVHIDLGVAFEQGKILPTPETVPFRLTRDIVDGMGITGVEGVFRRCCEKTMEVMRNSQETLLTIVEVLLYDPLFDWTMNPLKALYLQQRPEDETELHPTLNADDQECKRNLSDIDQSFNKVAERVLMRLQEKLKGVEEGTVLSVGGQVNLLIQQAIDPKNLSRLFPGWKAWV
Outline: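 HTRF kinase assay with N-terminal GST-tagged human p53 (aa2-393) substrate, 10 μM ATP, in 50 mM Hepes pH 7.5, 10 mM MnCl2, 1% DMSO. Enzyme preincubated with compound 30 min, reaction 2 h at room temperature. pS15 phosphorylation read by Eu-cryptate anti-p53-pS15/anti-GST-d2 HTRF (615/665 nm).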

DNA-PK = DNA-PK (Homo sapiens (Human), UniProt P78527); test: DNA-PK biochemical assay (Reaction Biology HotSpot kinase assay, 10 μM ATP)
Outline: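 Radiometric 33P-ATP kinase reaction in 20 mM Hepes pH 7.5, 10 mM MgCl2, 1 mM EGTA, 2 mM DTT, 1% DMSO. Compound preincubated with kinase and substrate 20 min at room temperature, then reaction run 2 h at room temperature after ATP addition. Activity read by P81 filter binding.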

PI3Kβ = PI3Kβ (Homo sapiens (Human), UniProt P42338); test: PI3Kβ biochemical assay (Reaction Biology ADP-Glo)
Sequence of PI3Kβ (P42338 whole entry): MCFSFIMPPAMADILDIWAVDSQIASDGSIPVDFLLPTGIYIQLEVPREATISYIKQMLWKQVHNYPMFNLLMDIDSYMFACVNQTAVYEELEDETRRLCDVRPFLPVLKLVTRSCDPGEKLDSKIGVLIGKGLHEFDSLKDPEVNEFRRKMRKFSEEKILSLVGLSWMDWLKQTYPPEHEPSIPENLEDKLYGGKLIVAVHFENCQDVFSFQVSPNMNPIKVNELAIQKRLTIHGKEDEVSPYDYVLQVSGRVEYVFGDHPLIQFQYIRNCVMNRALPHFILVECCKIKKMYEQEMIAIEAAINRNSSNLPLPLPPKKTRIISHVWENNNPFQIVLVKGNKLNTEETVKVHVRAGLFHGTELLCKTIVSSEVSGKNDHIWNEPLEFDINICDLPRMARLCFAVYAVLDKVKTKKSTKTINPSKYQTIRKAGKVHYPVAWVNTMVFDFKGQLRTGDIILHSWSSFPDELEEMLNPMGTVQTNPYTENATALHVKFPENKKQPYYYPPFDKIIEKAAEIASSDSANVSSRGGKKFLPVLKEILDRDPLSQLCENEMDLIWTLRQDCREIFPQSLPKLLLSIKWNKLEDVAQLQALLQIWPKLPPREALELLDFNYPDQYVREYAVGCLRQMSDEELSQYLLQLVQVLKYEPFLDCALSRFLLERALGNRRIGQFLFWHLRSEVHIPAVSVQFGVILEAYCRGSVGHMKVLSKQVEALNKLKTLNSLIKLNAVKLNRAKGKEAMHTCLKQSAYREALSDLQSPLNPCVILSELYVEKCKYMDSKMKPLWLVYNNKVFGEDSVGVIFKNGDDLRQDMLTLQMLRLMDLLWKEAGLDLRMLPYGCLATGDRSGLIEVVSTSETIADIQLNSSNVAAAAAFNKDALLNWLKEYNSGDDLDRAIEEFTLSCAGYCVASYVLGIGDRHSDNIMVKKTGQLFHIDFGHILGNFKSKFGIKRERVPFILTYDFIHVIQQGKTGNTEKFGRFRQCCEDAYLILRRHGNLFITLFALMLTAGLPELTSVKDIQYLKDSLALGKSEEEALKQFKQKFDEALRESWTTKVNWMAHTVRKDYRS
Sequence of PI3Kβ (P27986 whole entry partner): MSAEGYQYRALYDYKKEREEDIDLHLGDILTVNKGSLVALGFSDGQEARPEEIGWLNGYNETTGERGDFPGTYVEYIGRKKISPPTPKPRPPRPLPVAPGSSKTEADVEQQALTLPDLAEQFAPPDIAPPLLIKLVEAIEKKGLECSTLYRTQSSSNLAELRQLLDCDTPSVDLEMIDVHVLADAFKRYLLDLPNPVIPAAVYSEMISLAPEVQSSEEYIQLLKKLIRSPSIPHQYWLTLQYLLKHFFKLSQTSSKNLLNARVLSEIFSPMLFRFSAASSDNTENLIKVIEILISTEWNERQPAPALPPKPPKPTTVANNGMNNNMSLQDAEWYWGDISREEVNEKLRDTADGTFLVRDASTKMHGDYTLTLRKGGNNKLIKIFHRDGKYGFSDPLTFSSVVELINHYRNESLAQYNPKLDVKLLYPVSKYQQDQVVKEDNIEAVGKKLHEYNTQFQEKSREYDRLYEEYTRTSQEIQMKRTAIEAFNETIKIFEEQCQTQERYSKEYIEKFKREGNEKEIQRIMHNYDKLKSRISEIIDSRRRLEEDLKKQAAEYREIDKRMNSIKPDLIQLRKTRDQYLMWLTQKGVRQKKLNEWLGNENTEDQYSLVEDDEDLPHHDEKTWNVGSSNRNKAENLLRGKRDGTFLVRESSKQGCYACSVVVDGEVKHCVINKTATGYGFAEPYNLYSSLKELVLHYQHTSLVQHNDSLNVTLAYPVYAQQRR
Protocol: Phosphoinositide 3-kinase R (PI3KP) Biochemical Assay using Reaction Biology's ADP-Glo Assay Platform:
Step 1: Lipid kinases: Reaction Biology Corporation (RBC) currently offers lipid kinases in ADP-Glo format
Step 2: Assay Description Assay principle: The kinase reactions utilize ATP and produce ADP as a byproduct. The ADP production is quantified by ADP-Glo luminescence detection. This is a 3-step reaction: First, the kinase reaction with lipid substrate is carried out in the presence of ATP, and the reaction is quenched and depleted remaining ATP with ADP-Glo™ reagent, and then finally ADP is converted to ATP which is measured using a luciferase/luciferin reaction.
Step 3: Assay Procedure: 1. Prepare kinase in freshly prepared Reaction Buffer, kinase without substrate is delivered to background wells; 2. Deliver substrate into the kinase solution and gently mix, deliver to assay wells; 3. Deliver compounds in 100% DMSO into the kinase reaction mixture by Acoustic technology (Echo550; nanoliter range), incubate for 20 min at room temperature; 4. Deliver ATP into the reaction mixture to initiate the reaction; 5. Incubate for 60 min at 30° C.; 6. Quench the reaction with ADP-Glo reagent and incubate for 40 min; 7. Add Detection Mixture and incubate for 30 min; 8. Measure luminescence.
Step 4: Data Analysis: The luminescence is converted into M ADP production based on ADP standard curves. The nonlinear regression to obtain the standard curve and IC50 values are performed using Graphpad Prism software.

[3] = read-out: DNA-PK HotSpot 10 μM ATP IC50, class symbol
[4] = read-out: ATM HTRF 10 μM ATP IC50, class symbol
[5] = read-out: ATM HTRF 10 μM ATP IC50, numeric value
[6] = read-out: DNA-PK HotSpot 10 μM ATP IC50, numeric value

pIC50 ([1]; class symbol) | pIC50 ([2]; class symbol) | pIC50 (ATM; class symbol) | pIC50 (DNA-PK; [3]) | pIC50 (PI3Kβ; class symbol) | pIC50 (ATM; [4]) | pIC50 (DNA-PK; class symbol) | pIC50 ([1]; numeric value) | pIC50 ([2]; numeric value) | pIC50 (ATM; [5]) | pIC50 (DNA-PK; [6]) | pIC50 (PI3Kβ; numeric value) | Compound
≤ 6.00 | 6.00 to 7.00 | 7.00 to 8.00 | > 9.00 | 6.00 to 7.00 |  |  |  |  |  |  |  | Cc1cc2ncnn2cc1Nc1ncc2c(n1)n(C1CC3CCC1CC3)c(=O)n2C (stereo not drawn) [Compound 42, 9-((1s,4s)-bicyclo[2.2.2]octan-2-yl)-7-methyl-2-((7-methyl-[1,2,4]triazolo[1,5-a]pyridin-6-yl)amino)-7,9-dihydro-8H-purin-8-one]
6.00 to 7.00 | 7.00 to 8.00 | 8.00 to 9.00 | > 9.00 | 6.00 to 7.00 |  |  |  |  |  |  |  | Cc1cc2ncccc2cc1Nc1ncc2c(n1)n([C@H]1C[C@@H]3CC[C@H]1C3)c(=O)n2C [Compound 44, 9-((1S,2S,4R)-bicyclo[2.2.1]heptan-2-yl)-7-methyl-2-((7-methylquinolin-6-yl)amino)-7,9-dihydro-8H-purin-8-one]
≤ 6.00 | ≤ 6.00 |  |  | ≤ 6.00 | ≤ 6.00 | 8.00 to 9.00 |  |  |  |  |  | Cc1cc2c(cc1Nc1ncc3c(n1)n(C14CC(F)(C1)C4)c(=O)n3C)OCO2 [Compound 13, 9-(3-fluorobicyclo[1.1.1]pentan-1-yl)-7-methyl-2-((6-methylbenzo[d][1,3]dioxol-5-yl)amino)-7,9-dihydro-8H-purin-8-one]
≤ 6.00 | 6.00 to 7.00 | 7.00 to 8.00 | > 9.00 | 6.00 to 7.00 |  |  |  |  |  |  |  | COC12CCC(n3c(=O)n(C)c4cnc(Nc5cn6ncnc6cc5C)nc43)(CC1)C2 [Compound 6, 9-(4-methoxybicyclo[2.2.1]heptan-1-yl)-7-methyl-2-((7-methyl-[1,2,4]triazolo[1,5-a]pyridin-6-yl)amino)-7,9-dihydro-8H-purin-8-one]
≤ 6.00 | 6.00 to 7.00 | 6.00 to 7.00 | > 9.00 | ≤ 6.00 |  |  |  |  |  |  |  | COC12CCC(n3c(=O)n(C)c4cnc(Nc5cc6c(cc5C)OCO6)nc43)(CC1)C2 [Compound 7, 9-(4-methoxybicyclo[2.2.1]heptan-1-yl)-7-methyl-2-((6-methylbenzo[d][1,3]dioxol-5-yl)amino)-7,9-dihydro-8H-purin-8-one]
≤ 6.00 | 6.00 to 7.00 | 7.00 to 8.00 | > 9.00 | 6.00 to 7.00 |  |  |  |  |  |  |  | Cc1cc2ncnn2cc1Nc1ncc2c(n1)n([C@H]1C[C@@H]3CC[C@H]1C3)c(=O)n2C [Compound 45, 9-((1S,2S,4R)-bicyclo[2.2.1]heptan-2-yl)-7-methyl-2-((7-methyl-[1,2,4]triazolo[1,5-a]pyridin-6-yl)amino)-7,9-dihydro-8H-purin-8-one]
≤ 6.00 | ≤ 6.00 | 6.00 to 7.00 | > 9.00 | ≤ 6.00 |  |  |  |  |  |  |  | Cc1cc2ncnn2cc1Nc1ncc2c(n1)n(C13CC(F)(C1)C3)c(=O)n2C [Compound 12, 9-(3-fluorobicyclo[1.1.1]pentan-1-yl)-7-methyl-2-((7-methyl-[1,2,4]triazolo[1,5-a]pyridin-6-yl)amino)-7,9-dihydro-8H-purin-8-one]
≤ 6.00 | 6.00 to 7.00 | 7.00 to 8.00 | > 9.00 | 6.00 to 7.00 |  |  |  |  |  |  |  | Cc1cc2ncccc2cc1Nc1ncc2c(n1)n(C13CC(F)(C1)C3)c(=O)n2C [Compound 11, 9-(3-fluorobicyclo[1.1.1]pentan-1-yl)-7-methyl-2-((7-methylquinolin-6-yl)amino)-7,9-dihydro-8H-purin-8-one]
≤ 6.00 | 6.00 to 7.00 | 7.00 to 8.00 |  | 6.00 to 7.00 |  | > 9.00 | 5.74 | 6.89 | 7.06 | 10.15 | 6.18 | Cc1cc2ncnn2cc1Nc1ncc2c(n1)n(C13CCC(O)(CC1)C3)c(=O)n2C [Compound 1, 9-(4-hydroxybicyclo[2.2.1]heptan-1-yl)-7-methyl-2-((7-methyl-[1,2,4]triazolo[1,5-a]pyridin-6-yl)amino)-7,9-dihydro-8H-purin-8-one]
≤ 6.00 | 6.00 to 7.00 | 8.00 to 9.00 |  |  |  | 8.00 to 9.00 |  |  |  |  |  | COCC12CC(n3c(=O)n(C)c4cnc(Nc5cn6ncnc6cc5C)nc43)(C1)C2 [Compound 20, 9-(3-(methoxymethyl)bicyclo[1.1.1]pentan-1-yl)-7-methyl-2-((7-methyl-[1,2,4]triazolo[1,5-a]pyridin-6-yl)amino)-7,9-dihydro-8H-purin-8-one]
≤ 6.00 | 6.00 to 7.00 | 7.00 to 8.00 |  |  |  | 8.00 to 9.00 |  |  |  |  |  | Cc1cc2c(cc1Nc1ncc3c(n1)n(C14CC(CC#N)(C1)C4)c(=O)n3C)OCO2 [Compound 23, 2-(3-(7-methyl-2-((6-methylbenzo[d][1,3]dioxol-5-yl)amino)-8-oxo-7,8-dihydro-9H-purin-9-yl)bicyclo[1.1.1]pentan-1-yl)acetonitrile]
≤ 6.00 | ≤ 6.00 | 7.00 to 8.00 |  |  |  | 8.00 to 9.00 |  |  |  |  |  | COCC12CC(n3c(=O)n(C)c4cnc(Nc5cc6c(cc5C)OCO6)nc43)(C1)C2 [Compound 21, 9-(3-(methoxymethyl)bicyclo[1.1.1]pentan-1-yl)-7-methyl-2-((6-methylbenzo[d][1,3]dioxol-5-yl)amino)-7,9-dihydro-8H-purin-8-one]
6.00 to 7.00 | 6.00 to 7.00 | 7.00 to 8.00 | > 9.00 |  |  |  |  |  |  |  |  | Cc1cc2nonc2cc1Nc1ncc2c(n1)N(C13CCC(O)(CC1)C3)CC(=O)N2C [Compound 60, 8-(4-hydroxybicyclo[2.2.1]heptan-1-yl)-5-methyl-2-((6-methylbenzo[c][1,2,5]oxadiazol-5-yl)amino)-7,8-dihydropteridin-6(5H)-one]
≤ 6.00 | 6.00 to 7.00 | 8.00 to 9.00 |  |  |  | 8.00 to 9.00 |  |  |  |  |  | Cc1cc2ncnn2cc1Nc1ncc2c(n1)n(C13CC(CC#N)(C1)C3)c(=O)n2C [Compound 22, 2-(3-(7-methyl-2-((7-methyl-[1,2,4]triazolo[1,5-a]pyridin-6-yl)amino)-8-oxo-7,8-dihydro-9H-purin-9-yl)bicyclo[1.1.1]pentan-1-yl)acetonitrile]
6.00 to 7.00 | 6.00 to 7.00 | 7.00 to 8.00 | > 9.00 |  |  |  |  |  |  |  |  | Cc1cc2nccnc2cc1Nc1ncc2c(n1)n(C13CCC(O)(CC1)C3)c(=O)n2C [Compound 4, 9-(4-hydroxybicyclo[2.2.1]heptan-1-yl)-7-methyl-2-((7-methylquinoxalin-6-yl)amino)-7,9-dihydro-8H-purin-8-one]
≤ 6.00 | 6.00 to 7.00 | 6.00 to 7.00 | > 9.00 |  |  |  |  |  |  |  |  | Cc1cc2ncccc2cc1Nc1ncc2c(n1)N(C13CC(F)(C1)C3)C(=O)C21CC1 [Compound 71, 7′-(3-fluorobicyclo[1.1.1]pentan-1-yl)-2′-((7-methylquinolin-6-yl)amino)spiro[cyclopropane-1,5′-pyrrolo[2,3-d]pyrimidin]-6′(7′H)-one]
6.00 to 7.00 | 6.00 to 7.00 | 7.00 to 8.00 |  |  |  | > 9.00 | 6.67 | 6.82 | 7.44 | 9.15 |  | Cc1cc2ncnn2cc1Nc1ncc2c(n1)n(C13CCC(O)(CC1)CC3)c(=O)n2C [Compound 78, 9-(4-hydroxybicyclo[2.2.2]octan-1-yl)-7-methyl-2-((7-methyl-[1,2,4]triazolo[1,5-a]pyridin-6-yl)amino)-7,9-dihydro-8H-purin-8-one]
6.00 to 7.00 | 6.00 to 7.00 |  | > 9.00 |  | ≤ 6.00 |  |  |  |  |  |  | Cc1cc2c(cc1Nc1ncc3c(n1)N(C14CCC(O)(CC1)C4)C(=O)C31CC1)OCO2 [Compound 68, 7′-(4-hydroxybicyclo[2.2.1]heptan-1-yl)-2′-((6-methylbenzo[d][1,3]dioxol-5-yl)amino)spiro[cyclopropane-1,5′-pyrrolo[2,3-d]pyrimidin]-6′(7′H)-one]
